“Also recorded” adds a separate entry of the source. Read-outs that look alike come from different tables or passages of the source.
Key:
Aqueous solubility = format: physicochemical
murine TLR2 = murine TLR2 (Mus musculus (Mouse), UniProt Q9QUN7); assay: murine TLR2-specific NF-κB reporter gene assay (HEK-Blue cells); format: cell-based
Source text: The induction of NF-κB in a TLR2-specific reporter gene assay was quantified using HEK-BLUE™ cells as previously described (Wu, W. et al., J. Med. Chem. 2010, 53, 3198-3213). HEK293 cells stably transfected with either human TLR2 or murine TLR2 and alkaline phosphatase (sAP) were obtained from InvivoGen (San Diego, Calif.), and were maintained in HEK-BLUE™ Selection medium containing zeocin and normocin. Stable expression of secreted alkaline phosphatase (sAP) under control of NF-κB promoters is inducible by TLR2 agonists, and extracellular sAP in the supernatant is proportional to NF-κB induction. HEK-Blue cells were incubated at a density of ˜10^5 cells/mL in a volume of 80 μL/well, in 384-well, flat-bottomed, cell culture-treated microtiter plates until confluency was achieved, and then stimulated with serially-diluted aliquots of compounds for 12 h. sAP was assayed spectrophoto-metrically using an alkaline phosphatase-specific chromogen (present in the HEK-detection medium as supplied by the vendor) at 620 nm. […]

human TLR2 = human TLR2 (Homo sapiens (Human), UniProt O60603); assay: human TLR2-specific NF-κB reporter gene assay (HEK-Blue cells); format: cell-based
Source text: The induction of NF-κB in a TLR2-specific reporter gene assay was quantified using HEK-BLUE™ cells as previously described (Wu, W. et al., J. Med. Chem. 2010, 53, 3198-3213). HEK293 cells stably transfected with either human TLR2 or murine TLR2 and alkaline phosphatase (sAP) were obtained from InvivoGen (San Diego, Calif.), and were maintained in HEK-BLUE™ Selection medium containing zeocin and normocin. Stable expression of secreted alkaline phosphatase (sAP) under control of NF-κB promoters is inducible by TLR2 agonists, and extracellular sAP in the supernatant is proportional to NF-κB induction. HEK-Blue cells were incubated at a density of ˜10^5 cells/mL in a volume of 80 μL/well, in 384-well, flat-bottomed, cell culture-treated microtiter plates until confluency was achieved, and then stimulated with serially-diluted aliquots of compounds for 12 h. sAP was assayed spectrophoto-metrically using an alkaline phosphatase-specific chromogen (present in the HEK-detection medium as supplied by the vendor) at 620 nm. For antagonism assays, HEK-Blue cells were incubated at a density of ˜10^5 cells/mL in a volume of 80 μL/well and stimulated with either PAM2CS (1 μg/mL) or lipoteichoic acid (1 μg/mL) in the presence of graded concentrations of the test compounds as described for TLR7 previously (Shukla, N. M.; et al., Bioorg. Med. Chem. Lett. 2009, 19, 2211-2214; Shukla, N. M. et al., Bioorg. Med. Chem. 2011, 19, 3801-3811).

[1] = Stability of aqueous stocks; format: physicochemical
[2] = tested on: anti-bovine α-lactalbumin IgG responses; assay: Rabbit immunization with bovine α-lactalbumin, antigen-specific IgG ELISA; format: in vivo
Experimental: All experiments were performed in accordance with institutional guidelines (University of Kansas IACUC permit #119-06) which specifically approved this study. All antigen/adjuvant preparations were entirely aqueous; no liposomal or emulsifying agents were used. Cohorts of adult female New Zealand White rabbits (n=4) were immunized intramuscularly in the flank region with (a) 100 μg of bovine α-lactalbumin in 0.2 mL saline, or (b) 100 μg of bovine α-lactalbumin plus 100 μg of compound 25 in 0.2 mL saline, or (d) 100 μg of bovine α-lactalbumin plus 100 μg of dual TLR2-agonistic PAM2CSK4 (control). Pre-immune test-bleeds were first obtained via venipuncture of the marginal vein of the ear. […] A final test-bleed was performed via the marginal vein of the ear on Day 38. Sera were stored at −80° C. until used.
Bovine α-lactalbumin-specific ELISAs were performed in 384-well format using automated liquid handling methods as described (Shukla, N. M. et al. Bioorg. Med. Chem. Lett. 2011, 21, 3232-3236). Examination of the affinity of antigen-specific IgG using chaotropic ELISA (Pullen, G. R. et al. J. Immunol. Methods 1986, 86, 83-87 and Macdonald, R. A. et al. J. Immunol. Methods 1988, 106, 191-194). […] Plates were then read at 450 nm using a SpectraMax M4 device (Molecular Devices, Sunnyvale, Calif.).

TLR7 = TLR7 (Homo sapiens (Human), UniProt Q9NYK1); assay: primary human TLR-specific reporter gene assay, TLR7 cell line; format: cell-based; conditions: relative to parent compounds
[3] = human TLR2-specific reporter gene assay
[4] = human TLR2-specific reporter gene assay, ND = no activity detected at 10 μM, read-out: TLR2-Agonistic Activity (EC50 in nM)

human TLR2, sequence (O60603 21-784): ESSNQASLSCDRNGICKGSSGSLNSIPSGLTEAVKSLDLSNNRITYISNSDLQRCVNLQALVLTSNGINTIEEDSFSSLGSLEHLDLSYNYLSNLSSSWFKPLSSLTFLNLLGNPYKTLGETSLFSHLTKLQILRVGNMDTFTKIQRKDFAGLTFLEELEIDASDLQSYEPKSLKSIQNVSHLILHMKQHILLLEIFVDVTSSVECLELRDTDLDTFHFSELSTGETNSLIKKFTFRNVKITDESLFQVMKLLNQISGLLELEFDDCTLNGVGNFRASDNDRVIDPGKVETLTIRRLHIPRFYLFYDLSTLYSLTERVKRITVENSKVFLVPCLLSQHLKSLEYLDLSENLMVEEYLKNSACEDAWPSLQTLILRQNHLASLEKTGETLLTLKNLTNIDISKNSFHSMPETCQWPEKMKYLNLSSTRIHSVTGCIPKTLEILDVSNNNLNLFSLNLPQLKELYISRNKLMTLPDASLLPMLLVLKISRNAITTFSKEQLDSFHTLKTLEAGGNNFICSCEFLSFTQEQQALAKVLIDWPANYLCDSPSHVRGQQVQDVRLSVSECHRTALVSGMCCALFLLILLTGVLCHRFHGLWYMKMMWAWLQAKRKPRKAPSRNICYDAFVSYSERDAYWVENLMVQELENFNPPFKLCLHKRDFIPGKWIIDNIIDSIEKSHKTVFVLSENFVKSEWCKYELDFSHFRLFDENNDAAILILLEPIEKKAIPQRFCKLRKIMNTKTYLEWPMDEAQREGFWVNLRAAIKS
murine TLR2, sequence (Q9QUN7 25-784): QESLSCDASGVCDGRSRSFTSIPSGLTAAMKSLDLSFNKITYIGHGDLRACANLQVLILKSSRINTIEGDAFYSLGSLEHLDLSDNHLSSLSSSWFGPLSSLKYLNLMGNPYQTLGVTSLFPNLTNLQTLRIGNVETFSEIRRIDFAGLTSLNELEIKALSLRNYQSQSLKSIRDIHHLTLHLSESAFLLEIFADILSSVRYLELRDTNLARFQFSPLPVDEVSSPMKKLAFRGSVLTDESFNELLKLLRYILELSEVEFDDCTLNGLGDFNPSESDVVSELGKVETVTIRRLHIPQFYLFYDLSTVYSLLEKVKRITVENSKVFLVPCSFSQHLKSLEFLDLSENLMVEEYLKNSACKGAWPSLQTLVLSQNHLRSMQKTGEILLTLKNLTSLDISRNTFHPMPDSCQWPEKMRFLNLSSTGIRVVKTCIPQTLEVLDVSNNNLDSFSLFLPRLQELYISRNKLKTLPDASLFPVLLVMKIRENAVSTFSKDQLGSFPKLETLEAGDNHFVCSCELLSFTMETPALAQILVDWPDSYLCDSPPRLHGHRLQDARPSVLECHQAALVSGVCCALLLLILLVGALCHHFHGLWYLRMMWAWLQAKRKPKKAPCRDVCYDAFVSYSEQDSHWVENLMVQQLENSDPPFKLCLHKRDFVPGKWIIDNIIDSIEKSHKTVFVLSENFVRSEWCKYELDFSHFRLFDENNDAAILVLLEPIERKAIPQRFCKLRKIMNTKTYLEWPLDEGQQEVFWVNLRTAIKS
TLR7, sequence (Q9NYK1 27-1049): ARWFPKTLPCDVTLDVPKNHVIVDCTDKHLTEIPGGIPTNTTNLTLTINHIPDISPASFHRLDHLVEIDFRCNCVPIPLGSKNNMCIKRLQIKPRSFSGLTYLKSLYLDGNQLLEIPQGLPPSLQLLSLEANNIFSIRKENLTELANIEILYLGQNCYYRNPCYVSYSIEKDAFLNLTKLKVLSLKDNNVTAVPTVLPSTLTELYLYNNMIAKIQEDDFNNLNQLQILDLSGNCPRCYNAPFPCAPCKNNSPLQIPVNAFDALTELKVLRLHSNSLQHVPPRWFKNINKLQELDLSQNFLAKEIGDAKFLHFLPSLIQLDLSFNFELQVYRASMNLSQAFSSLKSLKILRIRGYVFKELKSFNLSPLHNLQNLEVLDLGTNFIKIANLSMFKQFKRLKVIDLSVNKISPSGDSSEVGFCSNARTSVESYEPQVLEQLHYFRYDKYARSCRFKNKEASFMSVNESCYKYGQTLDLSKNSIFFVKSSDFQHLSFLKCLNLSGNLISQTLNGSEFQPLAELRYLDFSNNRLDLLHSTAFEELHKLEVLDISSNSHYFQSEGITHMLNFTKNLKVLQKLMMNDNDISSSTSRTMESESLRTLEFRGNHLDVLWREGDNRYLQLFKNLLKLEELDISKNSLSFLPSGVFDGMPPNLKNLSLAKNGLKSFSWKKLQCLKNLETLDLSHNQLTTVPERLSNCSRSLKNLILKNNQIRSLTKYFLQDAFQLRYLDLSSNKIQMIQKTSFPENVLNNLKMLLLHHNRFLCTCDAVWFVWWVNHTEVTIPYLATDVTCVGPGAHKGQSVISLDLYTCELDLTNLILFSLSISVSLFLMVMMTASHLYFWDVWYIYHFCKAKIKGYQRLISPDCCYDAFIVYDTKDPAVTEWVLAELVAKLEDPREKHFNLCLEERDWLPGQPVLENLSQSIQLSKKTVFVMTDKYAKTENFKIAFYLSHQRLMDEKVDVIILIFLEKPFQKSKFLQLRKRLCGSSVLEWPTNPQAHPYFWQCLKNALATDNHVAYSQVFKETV

Row | EC50 (human TLR2; [4]) | Compound | other results
1 | – | CCCCCCCCCCCCCCCC(=O)OCCSC[C@H](N)C(=O)N[C@@H](CO)C(=O)OC [Compound 6d] | water solubility (Aqueous solubility): water-soluble; agonistic activity in mTLR2 / specificity for hTLR2 (murine TLR2): activating human TLR2 (hTLR2), but not murine TLR2 (mTLR2); also recorded: entirely inactive; EC50 (human TLR2; hTLR2 reporter gene assay, read-out: EC50 in engaging hTLR2): 3.6 nM; remark beside the EC50 (potency) (human TLR2; [3]): Low potency
2 | 4.79 nM | CCCCCCCCCCCCCCCCCC(=O)OCCSC[C@H](N)C(=O)N[C@@H](CO)C(=O)OC [Compound 6e, 2-(((R)-2-amino-3-(((S)-3-hydroxy-1-methoxy-1-oxopropan-2-yl)amino)-3-oxopropyl)thio)ethyl stearate] | agonistic activity in mTLR2 / specificity for hTLR2 (murine TLR2): entirely inactive; remark beside the EC50 (potency) (human TLR2; [3]): Low potency
3 | 0.225 nM | CCCCCCCCCCCCCCCC(=O)OCCSC[C@H](NC(C)=O)C(=O)N[C@@H](CCCCN)C(=O)OC [Compound 23, 2-(((R)-2-Acetamido-3-(((S)-6-amino-1-methoxy-1-oxohexan-2-yl)amino)-3-oxopropyl)thio)ethyl palmitate] | water solubility (Aqueous solubility): highly water soluble; stability of aqueous stocks [1]: significant loss of activity of aqueous stocks within about a week
4 | 6.81 nM | CCCCCCCCCCCCCCCC(=O)OCCSC[C@H](NC(C)=O)C(=O)N[C@@H](COC(=O)[C@@H](N)CCCCN)C(=O)OC.Cl.Cl [Compound 25, 2-(((R)-2-Acetamido-3-(((S)-3-(((S)-2,6-diaminohexanoyl)oxy)-1-methoxy-1-oxopropan-2-yl)amino)-3-oxopropyl)thio)ethyl palmitate] | induction of anti-bovine α-lactalbumin IgG responses ([2]; rabbits, prime+single-boost model, FIG. 2): excellent induction; water solubility (Aqueous solubility): exceptionally water soluble; stability of aqueous stocks [1]: unstable
5 | 7.1 nM | CCCCCCCCCCCCCCCC(=O)OCCSC[C@H](NC(C)=O)C(=O)N[C@@H](COS(=O)(=O)O)C(=O)OC [Compound 26, 2-(((R)-2-Acetamido-3-(((S)-1-methoxy-1-oxo-3-(sulfooxy)propan-2-yl)amino)-3-oxopropyl)thio)ethyl palmitate] | water solubility (Aqueous solubility): exceptionally water soluble
6 | 0.518 nM | CCCCCCCCCCCCCCCC(=O)OCCSC[C@H](NC(C)=O)C(=O)N[C@@H](COC(=O)CCC(=O)O)C(=O)OC [Compound 27, (7S,10R)-10-Acetamido-7-(methoxycarbonyl)-4,9,16-trioxo-5,15-dioxa-12-thia-8-azahentriacontan-1-oic acid] | water solubility (Aqueous solubility): exceptionally water soluble
7 | 11.8 nM | CCCCCCCCCCCCCCCC(=O)NCCSC[C@H](NC(C)=O)C(=O)N[C@@H](CO)C(=O)OC [Compound 34, (S)-Methyl 2-((R)-2-acetamido-3-((2-palmitamidoethyl)thio)propanamido)-3-hydroxypropanoate] | –
8 | 641 nM | CCCCCCCCCCCCCCCCn1cc(CCSC[C@H](NC(C)=O)C(=O)N[C@@H](CO)C(=O)OC)nn1 [Compound 38, (S)-Methyl 2-((R)-2-acetamido-3-((2-(1-hexadecyl-1H-1,2,3-triazol-4-yl)ethyl)thio)propanamido)-3-hydroxypropanoate] | –
9 | 260 nM | CCCCCCCCCCCCCc1cn(CCSC[C@H](NC(C)=O)C(=O)N[C@@H](CO)C(=O)OC)nn1 [Compound 41, (S)-Methyl 2-((R)-2-acetamido-3-((2-(4-tridecyl-1H-1,2,3-triazol-1-yl)ethyl)thio)propanamido)-3-hydroxypropanoate] | –
10 | 0.323 nM | CCCCCCCCCCCCCCCCNC(=O)OCCSC[C@H](NC(C)=O)C(=O)N[C@@H](CO)C(=O)OC [Compound 45, (2S,5R)-Methyl 5-acetamido-2-(hydroxymethyl)-4,11-dioxo-10-oxa-7-thia-3,12-diazaoctacosan-1-oate] | –
11 | 0.0615 nM | CCCCCCCCCCCCCCCCOC(=O)NCCSC[C@H](NC(C)=O)C(=O)N[C@@H](CO)C(=O)OC [Compound 48, (2S,5R)-Methyl 5-acetamido-2-(hydroxymethyl)-4,11-dioxo-12-oxa-7-thia-3,10-diazaoctacosan-1-oate] | –
12 | 0.279 nM | CCCCCCCCCCCCCCCCOC(=O)NCCSC[C@H](NC(C)=O)C(=O)N[C@@H](CO)C(=O)NCCCN(C)C [Compound 52, Hexadecyl ((8S,11R)-11-acetamido-8-(hydroxymethyl)-2-methyl-7,10-dioxo-13-thia-2,6,9-triazapentadecan-15-yl)carbamate] | water solubility (Aqueous solubility): restored
13 | 221 nM | CCCCCCCCCCCCCCCCOC(=O)NCCSC[C@H](NC(C)=O)C(=O)N[C@@H](CO)C(=O)NCc1ccc(Cn2c(CCCC)nc3c(N)nc4ccccc4c32)cc1 [Compound 54, Hexadecyl(2-(((R)-2-acetamido-3-(((S)-1-((4-((4-amino-2-butyl-1H-imidazo[4,5-c]quinolin-1-yl)methyl)benzyl)amino)-3-hydroxy-1-oxopropan-2-yl)amino)-3-oxopropyl)thio)ethyl)carbamate] | activity in TLR7 cell line (TLR7): less active than their parent compounds; hTLR2-agonistic activity in words (human TLR2; hTLR2 reporter gene assay): less active than their parent compounds
14 | 1.13 nM | CCCCCCCCCCC[C@@H](O)CC(=O)OCCSC[C@H](NC(C)=O)C(=O)N[C@@H](CO)C(=O)OC [Compound 65] | –
15 | 0.808 nM | CCCCCCCCCCC[C@H](CC(=O)OCCSC[C@H](NC(C)=O)C(=O)N[C@@H](CO)C(=O)OC)OC=O [Compound 66] | –
16 | 0.182 nM | CCCCCCCCCCC[C@H](CC(=O)OCCSC[C@H](NC(C)=O)C(=O)N[C@@H](CO)C(=O)OC)OC(C)=O [Compound 82] | –
17 | 0.345 nM | CCCCCCCCCCC[C@H](CC(=O)OCCSC[C@H](NC(C)=O)C(=O)N[C@@H](CO)C(=O)OC)OC(=O)CCC [Compound 83] | –
18 | 1.5 nM | CCCCCCCCCCC[C@H](CC(=O)OCCSC[C@H](NC(C)=O)C(=O)N[C@@H](CO)C(=O)OC)OC(=O)CCCCC [Compound 84] | –
19 | 3.08 nM | CCCCCCCCCCC[C@H](CC(=O)OCCSC[C@H](NC(C)=O)C(=O)N[C@@H](CO)C(=O)OC)OC(=O)CCCCCCC [Compound 85] | –
20 | 12.9 nM | CCCCCCCCCCC[C@H](CC(=O)OCCSC[C@H](NC(C)=O)C(=O)N[C@@H](CO)C(=O)OC)OC(=O)CCCCCCCCC [Compound 86] | –
21 | 20.7 nM | CCCCCCCCCCCC(=O)O[C@H](CCCCCCCCCCC)CC(=O)OCCSC[C@H](NC(C)=O)C(=O)N[C@@H](CO)C(=O)OC [Compound 87] | –
22 | 9.52 nM | CCCCCCCCCCCCCC(=O)O[C@H](CCCCCCCCCCC)CC(=O)OCCSC[C@H](NC(C)=O)C(=O)N[C@@H](CO)C(=O)OC [Compound 88] | –
23 | 4.78 nM | CCCCCCCCCCCCCCCC(=O)O[C@H](CCCCCCCCCCC)CC(=O)OCCSC[C@H](NC(C)=O)C(=O)N[C@@H](CO)C(=O)OC [Compound 89] | –
24 | – | PAM2CSK4 [reference compound] | adjuvanticity ([2]; New Zealand White rabbits, direct comparison with glucopyranosyl lipid A): highly adjuvantic
